According to US11445724B2, “Insecticidal compounds” (SYNGENTA PARTICIPATIONS AG, priority 2013, dated 2022):

What was measured:
Format in all cases: in vivo
[1] = test system: Tetranychus urticae (Two-spotted spider mite); assay: Tetranychus urticae (Two-spotted spider mite) mortality, sprayed bean leaf discs; conditions: foliar, 192 h, 200 ppm spray on bean leaf discs, mixed ages, egg, larval and adult mortality after 8 days
[2] = test system: Diabrotica balteata (Corn root worm); assay: Diabrotica balteata (Corn root worm) larval mortality, artificial diet in 24-well MTP; conditions: 120 h, application rate 200 ppm (concentration in well 18 ppm), L2 larvae, larval mortality after 5 days
[3] = test system: Thrips tabaci (Onion thrips); assay: Thrips tabaci (Onion thrips) mortality, sprayed sunflower leaf discs; conditions: foliar, 168 h, 200 ppm spray on sunflower leaf discs, mixed ages, mortality after 7 days
[4] = test system: Plutella xylostella (Diamond back moth); assay: Plutella xylostella (Diamond back moth) larval mortality, artificial diet in 24-well MTP; conditions: 144 h, application rate 200 ppm (concentration in well 18 ppm), L2 larvae, larval mortality after 6 days
[5] = test system: Spodoptera littoralis (Egyptian cotton leafworm); assay: Spodoptera littoralis (Egyptian cotton leafworm) mortality, sprayed cotton leaf discs; conditions: foliar, 72 h, 200 ppm spray on cotton leaf discs, L1 larvae, mortality 3 DAT
[6] = test system: Myzus persicae (Green peach aphid); assay: Myzus persicae (Green peach aphid) mortality, sprayed sunflower leaf discs; conditions: foliar, 144 h, 200 ppm spray on sunflower leaf discs, mixed ages, mortality 6 DAT
[7] = test system: Myzus persicae (Green peach aphid); assay: Myzus persicae (Green peach aphid) mortality, test compounds mixed with Sucrose solution under Parafilm; conditions: 120 h, 12.5 ppm in Sucrose solution, infested pea seedlings on Parafilm, mortality 5 days after infestation

COc1c(NC(=O)c2ccc(F)cc2F)cccc1C(=O)Nc1c(Br)cc(C(F)(C(F)(F)F)C(F)(F)F)cc1OC(F)F [Compound 71]
≥ 80%: pest or weed control at 200 ppm [1] | pest or weed control at 200 ppm [2] | pest or weed control at 200 ppm [3] | pest or weed control at 200 ppm [4] | pest or weed control at 200 ppm [5] | pest or weed control at 200 ppm [6]

COc1c(NC(=O)c2ccccc2)cccc1C(=O)Nc1c(Cl)cc(C(F)(C(F)(F)F)C(F)(F)F)cc1OC(F)F [Compound 92]
≥ 80%: pest or weed control at 200 ppm [1] | pest or weed control at 200 ppm [2] | pest or weed control at 200 ppm [3] | pest or weed control at 200 ppm [4] | pest or weed control at 200 ppm [5] | pest or weed control at 200 ppm [6]

O=C(Nc1cccc(C(=O)Nc2c(Cl)cc(C(F)(C(F)(F)F)C(F)(F)F)cc2OC(F)F)c1F)c1ccc(F)cc1Cl [Compound 74]
≥ 80%: pest or weed control at 200 ppm [1] | pest or weed control at 12.5 ppm [7] | pest or weed control at 200 ppm [2] | pest or weed control at 200 ppm [3] | pest or weed control at 200 ppm [4] | pest or weed control at 200 ppm [5]

O=C(Nc1cccc(C(=O)Nc2c(Cl)cc(C(F)(C(F)(F)F)C(F)(F)F)cc2OC(F)F)c1F)c1ccc(F)c(C(F)(F)F)c1 [Compound 62]
≥ 80%: pest or weed control at 200 ppm [1] | pest or weed control at 12.5 ppm [7] | pest or weed control at 200 ppm [2] | pest or weed control at 200 ppm [4] | pest or weed control at 200 ppm [5]

CCN(C(=O)c1ccccc1Cl)c1cccc(C(=O)Nc2c(Cl)cc(C(F)(C(F)(F)F)C(F)(F)F)cc2OC(F)F)c1F [Compound 112]
≥ 80%: pest or weed control at 200 ppm [1] | pest or weed control at 200 ppm [2] | pest or weed control at 200 ppm [3] | pest or weed control at 200 ppm [4] | pest or weed control at 200 ppm [5] | pest or weed control at 200 ppm [6]

COc1c(NC(=O)c2ccccc2C(F)(F)F)cccc1C(=O)Nc1c(Cl)cc(C(F)(C(F)(F)F)C(F)(F)F)cc1OC(F)F [Compound 94]
≥ 80%: pest or weed control at 200 ppm [1] | pest or weed control at 200 ppm [2] | pest or weed control at 200 ppm [3] | pest or weed control at 200 ppm [4] | pest or weed control at 200 ppm [5] | pest or weed control at 200 ppm [6]

COc1c(NC(=O)c2ccccc2Cl)cccc1C(=O)Nc1c(Cl)cc(C(F)(C(F)(F)F)C(F)(F)F)cc1OC(F)F [Compound 79]
≥ 80%: pest or weed control at 200 ppm [1] | pest or weed control at 200 ppm [2] | pest or weed control at 200 ppm [3] | pest or weed control at 200 ppm [4] | pest or weed control at 200 ppm [5] | pest or weed control at 200 ppm [6]

COc1c(NC(=O)c2ccccc2C)cccc1C(=O)Nc1c(Cl)cc(C(F)(C(F)(F)F)C(F)(F)F)cc1OC(F)F [Compound 77]
≥ 80%: pest or weed control at 200 ppm [1] | pest or weed control at 200 ppm [2] | pest or weed control at 200 ppm [3] | pest or weed control at 200 ppm [4] | pest or weed control at 200 ppm [5]

COc1c(NC(=O)c2ccc(F)cc2F)cccc1C(=O)Nc1c(Cl)cc(C(F)(C(F)(F)F)C(F)(F)F)cc1OC(F)F [Compound 97]
≥ 80%: pest or weed control at 200 ppm [1] | pest or weed control at 200 ppm [3] | pest or weed control at 200 ppm [4] | pest or weed control at 200 ppm [5] | pest or weed control at 200 ppm [6]

CCN(C(=O)c1ccccc1OC)c1cccc(C(=O)Nc2c(Cl)cc(C(F)(C(F)(F)F)C(F)(F)F)cc2OC(F)F)c1OC [Compound 154]
≥ 80%: pest or weed control at 200 ppm [1] | pest or weed control at 200 ppm [2] | pest or weed control at 200 ppm [3] | pest or weed control at 200 ppm [4] | pest or weed control at 200 ppm [5]

COc1c(NC(=O)c2ccc(OC(F)(F)F)cc2)cccc1C(=O)Nc1c(Cl)cc(C(F)(C(F)(F)F)C(F)(F)F)cc1OC(F)F [Compound 87]
≥ 80%: pest or weed control at 200 ppm [1] | pest or weed control at 200 ppm [2] | pest or weed control at 200 ppm [3] | pest or weed control at 200 ppm [4] | pest or weed control at 200 ppm [5]

O=C(Nc1cccc(C(=O)Nc2c(Cl)cc(C(F)(C(F)(F)F)C(F)(F)F)cc2OC(F)F)c1F)c1ccccc1Cl [Compound 48]
≥ 80%: pest or weed control at 200 ppm [1] | pest or weed control at 200 ppm [2] | pest or weed control at 200 ppm [3] | pest or weed control at 200 ppm [4] | pest or weed control at 200 ppm [5] | pest or weed control at 200 ppm [6]

COc1c(NC(=O)c2ccccc2Cl)cccc1C(=O)Nc1c(Br)cc(C(F)(C(F)(F)F)C(F)(F)F)cc1OC(F)F [Compound 37]
≥ 80%: pest or weed control at 200 ppm [1] | pest or weed control at 200 ppm [2] | pest or weed control at 200 ppm [3] | pest or weed control at 200 ppm [4] | pest or weed control at 200 ppm [5] | pest or weed control at 200 ppm [6]

CCN(C(=O)c1ccc(F)cc1C)c1cccc(C(=O)Nc2c(Br)cc(C(F)(C(F)(F)F)C(F)(F)F)cc2OC(F)F)c1OC [Compound 133]
≥ 80%: pest or weed control at 200 ppm [1] | pest or weed control at 200 ppm [2] | pest or weed control at 200 ppm [3] | pest or weed control at 200 ppm [4] | pest or weed control at 200 ppm [5]

COc1c(NC(=O)c2ccc(F)cc2Cl)cccc1C(=O)Nc1c(Cl)cc(C(F)(C(F)(F)F)C(F)(F)F)cc1OC(F)F [Compound 95]
≥ 80%: pest or weed control at 200 ppm [1] | pest or weed control at 200 ppm [2] | pest or weed control at 200 ppm [3] | pest or weed control at 200 ppm [4] | pest or weed control at 200 ppm [5] | pest or weed control at 200 ppm [6]

CCN(C(=O)c1ccc([N+](=O)[O-])cc1Cl)c1cccc(C(=O)Nc2c(Cl)cc(C(F)(C(F)(F)F)C(F)(F)F)cc2OC(F)F)c1OC [Compound 152]
≥ 80%: pest or weed control at 200 ppm [1] | pest or weed control at 12.5 ppm [7] | pest or weed control at 200 ppm [2] | pest or weed control at 200 ppm [3] | pest or weed control at 200 ppm [4] | pest or weed control at 200 ppm [5]

COc1c(NC(=O)c2ccccc2OC(F)(F)F)cccc1C(=O)Nc1c(Br)cc(C(F)(C(F)(F)F)C(F)(F)F)cc1OC(F)F [Compound 56]
≥ 80%: pest or weed control at 12.5 ppm [7] | pest or weed control at 200 ppm [2] | pest or weed control at 200 ppm [3] | pest or weed control at 200 ppm [4] | pest or weed control at 200 ppm [5] | pest or weed control at 200 ppm [6]

COc1c(NC(=O)c2ccc(F)cc2C)cccc1C(=O)Nc1c(Br)cc(C(F)(C(F)(F)F)C(F)(F)F)cc1OC(F)F [Compound 43]
≥ 80%: pest or weed control at 200 ppm [1] | pest or weed control at 200 ppm [2] | pest or weed control at 200 ppm [3] | pest or weed control at 200 ppm [4] | pest or weed control at 200 ppm [5] | pest or weed control at 200 ppm [6]

CCN(C(=O)c1ccc(C(F)(F)F)cc1)c1cccc(C(=O)Nc2c(Br)cc(C(F)(C(F)(F)F)C(F)(F)F)cc2OC(F)F)c1F [Compound 105]
≥ 80%: pest or weed control at 12.5 ppm [7] | pest or weed control at 200 ppm [2] | pest or weed control at 200 ppm [3] | pest or weed control at 200 ppm [4] | pest or weed control at 200 ppm [5] | pest or weed control at 200 ppm [6]

CCN(C(=O)c1ccccc1F)c1cccc(C(=O)Nc2c(Br)cc(C(F)(C(F)(F)F)C(F)(F)F)cc2OC(F)F)c1OC [Compound 129]
≥ 80%: pest or weed control at 200 ppm [1] | pest or weed control at 200 ppm [2] | pest or weed control at 200 ppm [3] | pest or weed control at 200 ppm [4] | pest or weed control at 200 ppm [5]

Cc1ccccc1C(=O)Nc1cccc(C(=O)Nc2c(Cl)cc(C(F)(C(F)(F)F)C(F)(F)F)cc2OC(F)F)c1F [Compound 46]
≥ 80%: pest or weed control at 200 ppm [1] | pest or weed control at 200 ppm [2] | pest or weed control at 200 ppm [3] | pest or weed control at 200 ppm [4] | pest or weed control at 200 ppm [5]

COc1c(NC(=O)c2ccccc2C)cccc1C(=O)Nc1c(Br)cc(C(F)(C(F)(F)F)C(F)(F)F)cc1OC(F)F [Compound 35]
≥ 80%: pest or weed control at 200 ppm [1] | pest or weed control at 200 ppm [2] | pest or weed control at 200 ppm [3] | pest or weed control at 200 ppm [4] | pest or weed control at 200 ppm [5] | pest or weed control at 200 ppm [6]
